According to the supplement of paper PMC10307832:

Columns and labels:
Assay in all cases: relative viability (nuclei count vs DMSO), 5 days (fraction); higher = more cells survive
[1] = compound: C1CSC2=C(C(=O)N1)SC3=C2C=C(C=C3)O [kb NB 142-70] + O=C(CCCCCCC(=O)Nc1ccccc1)NO [Vorinostat] (partner 1 µM)
Summary of the method: (§1)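 Lung cancer cell lines were seeded in 1536-well plates and dosed by pin tool the next day, with either a single drug or a fixed anchor-drug dose combined with five library-drug doses (not always all listed) spaced in √10 steps. Five days later, one step fixed the cells and stained their nuclei (final 0.05% Triton X-100, 1% formaldehyde, 1 ug/ml Hoechst), and nuclei were counted on 4× images. Relative viability is the nuclei count in treated wells divided by the count in vehicle wells, and each value is the median of duplicate plates.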

kb NB 142-70 + Olaparib = compound: C1CSC2=C(C(=O)N1)SC3=C2C=C(C=C3)O [kb NB 142-70] + O=C(c1cc(Cc2n[nH]c(=O)c3ccccc23)ccc1F)N1CCN(C(=O)C2CC2)CC1 [Olaparib] (partner 8 µM)
Summary of the method: as §1

[2] = compound: NCC(=O)Nc1ccc(-n2nc(C(F)(F)F)cc2-c2ccc3c(ccc4ccccc43)c2)cc1 + Cc1cc(Nc2cc(N3CCN(C)CC3)nc(Sc3ccc(NC(=O)C4CC4)cc3)n2)n[nH]1 [Tozasertib] (partner 0.1 µM)
Summary of the method: as §1

[3] = compound: NCC(=O)Nc1ccc(-n2nc(C(F)(F)F)cc2-c2ccc3c(ccc4ccccc43)c2)cc1 + Nc1ncn([C@H]2C[C@H](O)[C@@H](CO)O2)c(=O)n1 [Decitabine] (partner 2 µM)
Summary of the method: as §1

kb NB 142-70 + Lapatinib = compound: C1CSC2=C(C(=O)N1)SC3=C2C=C(C=C3)O [kb NB 142-70] + CS(=O)(=O)CCNCc1ccc(-c2ccc3ncnc(Nc4ccc(OCc5cccc(F)c5)c(Cl)c4)c3c2)o1 [Lapatinib] (partner 2 µM)
Summary of the method: as §1

Cell Line	relative viability ([1]; first compound 0.1 µM)	relative viability ([1]; first compound 1 µM)	relative viability ([1]; first compound 3.162 µM)	relative viability (kb NB 142-70 + Olaparib; first compound 0.1 µM)	relative viability (kb NB 142-70 + Olaparib; first compound 1 µM)	relative viability (kb NB 142-70 + Olaparib; first compound 3.162 µM)	relative viability ([2]; first compound 0.02 µM)	relative viability ([2]; first compound 0.06325 µM)	relative viability ([2]; first compound 0.2 µM)	relative viability ([2]; first compound 0.6325 µM)	relative viability ([2]; first compound 2 µM)	relative viability ([3]; first compound 0.02 µM)	relative viability ([3]; first compound 0.06325 µM)	relative viability ([3]; first compound 0.2 µM)	relative viability ([3]; first compound 0.6325 µM)	relative viability ([3]; first compound 2 µM)	relative viability (kb NB 142-70 + Lapatinib; first compound 0.1 µM)	relative viability (kb NB 142-70 + Lapatinib; first compound 1 µM)	relative viability (kb NB 142-70 + Lapatinib; first compound 3.162 µM)
HCC-366	0.473	0.372	0.231	0.371	0.509	0.443	0.42	0.18	0.118	0.15	0.0801	0.353	0.369	0.367	0.352	0.517	1.06	0.926	0.927
HCC-827	0.763	0.864	0.88	0.655	0.62	0.404	0.38	0.437	0.389	0.427	0.446	0.315	0.212	0.31	0.309	0.335	0.206	0.192	0.173
HOP-62	0.69	0.713	0.579	0.457	0.39	0.333	0.364	0.409	0.37	0.409	0.365	0.214	0.228	0.225	0.206	0.192	1.07	0.97	0.974
IA-LM	0.957	0.994	1.16	0.841	0.771	0.807	–	–	–	–	–	–	–	–	–	–	0.771	0.95	0.787
LC-2-ad	0.726	0.698	0.71	0.681	0.716	0.649	0.399	0.546	0.486	0.469	0.42	0.808	0.779	0.831	0.789	0.774	0.96	0.885	0.937
LCLC-97TM1	0.82	0.773	0.515	0.404	0.371	0.198	0.228	0.26	0.234	0.206	0.206	0.237	0.24	0.252	0.19	0.221	0.992	0.685	1.08
LCLC-103H	0.856	0.873	0.877	0.751	0.749	0.847	0.416	0.477	0.457	0.471	0.448	0.735	0.742	0.809	0.763	0.748	–	–	–
LK-2	0.417	0.279	0.219	0.822	0.551	0.323	0.159	0.185	0.183	0.188	0.171	0.283	0.268	0.249	0.319	0.278	0.802	0.734	0.536
LOU-NH91	0.915	0.913	0.601	0.879	0.917	0.552	0.621	0.716	0.649	0.663	0.797	0.836	0.829	0.816	0.849	0.84	0.724	0.73	0.581
LU99A	0.486	0.443	0.33	0.274	0.291	0.251	0.241	0.273	0.259	0.271	0.265	0.817	0.987	0.838	0.843	0.91	0.977	0.858	0.71
NCI-H441	0.89	0.844	0.644	0.631	0.533	0.22	0.642	0.522	0.747	0.603	0.697	0.274	0.276	0.225	0.266	0.248	–	–	–
NCI-H522	0.983	0.835	0.794	0.69	0.587	0.509	–	0.589	0.537	0.505	0.516	0.638	0.619	0.673	0.681	0.608	–	–	–
NCI-H1299	–	–	–	1.02	0.949	0.837	–	–	–	–	–	–	–	–	–	–	0.919	1.02	1
NCI-H1563	–	–	–	–	–	–	–	–	–	–	–	–	–	–	–	–	0.969	0.889	0.944
NCI-H1623	–	–	–	–	–	–	0.407	0.429	0.464	0.396	0.488	–	–	–	–	–	–	–	–
NCI-H1648	0.356	0.345	0.423	0.645	0.707	0.738	0.362	0.532	0.502	0.503	0.399	0.577	0.515	0.479	0.549	0.445	–	–	–
NCI-H1703	–	–	–	0.47	0.387	0.455	–	–	–	–	–	–	–	–	–	–	1.1	1.08	1.31
NCI-H1792	–	–	–	0.406	0.547	0.619	–	–	–	–	–	0.705	0.569	0.479	0.605	0.582	0.87	0.85	1.03
NCI-H2228	0.988	0.557	0.512	0.694	0.587	0.362	0.217	0.265	0.308	0.27	0.229	–	–	–	–	–	1.07	1.02	0.323
NCI-H2342	0.858	0.782	0.649	0.397	0.458	0.408	0.652	0.676	0.45	0.448	0.492	0.653	0.775	0.788	0.709	0.744	–	–	–
SW 900	0.597	0.593	0.388	0.906	1.14	0.789	–	0.509	0.594	0.533	0.511	0.43	0.452	0.607	0.406	0.444	–	–	–
